Literature values, collected in US20230022060A1, “TURKESTERONE HYDROXYPROPYL B-CYCLIC DEXTRIN COMPLEX AND METHOD OF MANUFACTURING THEREOF” (Gorilla Mind, LLC, priority 2021, published 2023).

Columns and labels:
[1] = 100 mL water at 25° C.
[2] = tested on: Staphylococcus aureus, Bacillus subtilis and Escherichia coli; details: three bacteria

OC[C@H]1O[C@@H]2O[C@H]3[C@H](O)[C@@H](O)[C@@H](O[C@H]4[C@H](O)[C@@H](O)[C@@H](O[C@H]5[C@H](O)[C@@H](O)[C@@H](O[C@H]6[C@H](O)[C@@H](O)[C@@H](O[C@H]7[C@H](O)[C@@H](O)[C@@H](O[C@H]1[C@H](O)[C@H]2O)O[C@@H]7CO)O[C@@H]6CO)O[C@@H]5CO)O[C@@H]4CO)O[C@@H]3CO [α-cyclodextrin]
amount that can be dissolved in water [1]: About 14 g in 100 mL water

O=C(/C=C/c1ccc(O)c(O)c1)O[C@@H]1C[C@](O)(C(=O)O)C[C@@H](O)[C@H]1O [chlorogenic acid]
difference of antimicrobial activity between chlorogenic acid and its complex [2]: No significant difference
